These results are taken from US20260234403A1, “PHOTOACTIVE FLUORESCENT COMPOUNDS AND USE THEREOF FOR LABELING OF PROTEINS” (EIKON THERAPEUTICS, INC., priority 2023, published 2026).

Assay [1] concerns Wild-type (WT) U2OS cells. Nature of the assay: Reduction in nonspecific labeling of WT cells (number of tracks vs PA-JF549). It is filed as cell-based. To be noted: 100 nM, 1 hr, ratio with PA-JF549 in the numerator. The method, then: Using the methods described in Tables 4a and 4b above, labelling specificity of the compound of Examples 1-28 was measured and compared to PA-JF549. U2OS cells wild type or expressing ER-HaloTag fusion were incubated with PA-JF549 or Examples 1-28 for 1 hr. […] Labeling specificity, as measured by the fold reduction in nonspecific labeling of WT cells, was calculated by number of tracks measured in WT cells for Examples 1-28 compared to the number of tracks in WT cells for PA-JF549, expressed as the ratio with PA-JF549 in the numerator.

The test system of assay [2] is histone H2B-HaloTag fusion. Put plainly: Halo-protein specificity (Specificity Factor), single molecule spot detection. It is filed as cell-based. The settings on record: ratio of slope (spots vs dye concentration, 200 nM to 1 nM, 45 minutes) relative to PA-JF549; WT and H2B-HaloTag U2OS cells. The text has this:
Images were collected every 10 msec for 5 seconds per field of view and pulses of ascending intensity 405 nm light (between 0 and 12 mW at the coverslip) were used to photoactivate dye molecules.
For each dye compound, a linear regression was used to determine the relationship between the concentration of dye compound and the number of fluorescence spots detected on the microscope, where in WT cells the ideal dye would have no correlation between compound concentration and number of slots measured. The Specificity Factor was calculated as the ratio of the slope of the compound in question relative to the slope calculated for PA-JF549 and is shown in Table 3 below.

Where [3] appears, read: Table 4b, Example 19 with 642 nm light.

As to `COC[C@H]1CCN1c1ccc2c(c1)Oc1cc(N3CC[C@@H]3COC)ccc1C21C(=[N+]=[N-])C(=O)c2ccc(C(=O)NCCOCCOCCCCCCCl)cc21` [Example 3, N-(2-(2-((6-chlorohexyl)oxy)ethoxy)ethyl)-2-diazo-3′,6′-bis((R)-2-(methoxymethyl)azetidin-1-yl)-3-oxo-2,3-dihydrospiro[indene-1,9′-xanthene]-6-carboxamide], the “Fold reduction in nonspecific labeling” value in assay [1] (Table 4a) and in assay [1] (setting [3]) was 1-5 in each case. The “Specificity Factor” value in assay [2] was 2.07.
In the case of `CN(C)C(=O)C1CN(c2ccc3c(c2)Oc2cc(N4CC(C(=O)N(C)C)C4)ccc2C32C(=[N+]=[N-])C(=O)c3ccc(C(=O)NCCOCCOCCCCCCCl)cc32)C1` [Example 4, 1,1′-(6-((2-(2-((6-chlorohexyl)oxy)ethoxy)ethyl)carbamoyl)-2-diazo-3-oxo-2,3-dihydrospiro[indene-1,9′-xanthene]-3′,6′-diyl)bis(N,N-dimethylazetidine-3-carboxamide)], the “Fold reduction in nonspecific labeling” value in assay [1] (Table 4a) and in assay [1] (setting [3]) was above 10 throughout. Also, in assay [2], the “Specificity Factor” value was 23.8.
`CN(CCOCCOCCCCCCCl)Cc1ccc2c(c1)C1(C(=[N+]=[N-])C2=O)c2ccc(N3CCC3)cc2Oc2cc(N3CCC3)ccc21` [Example 26, 3′,6′-di(azetidin-1-yl)-6-(((2-(2-((6-chlorohexyl)oxy)ethoxy)ethyl)(methyl)amino)methyl)-2-diazospiro[indene-1,9′-xanthen]-3(2H)-one]: the “Fold reduction in nonspecific labeling” value in assay [1] (setting [3]) was below 1.
With `[N-]=[N+]=C1C(=O)c2ccc(COCCOCCOCCCCCCCl)cc2C12c1ccc(N3CCC3)cc1Oc1cc(N3CCC3)ccc12` [Example 27, 3′,6′-di(azetidin-1-yl)-6-((2-(2-((6-chlorohexyl)oxy)ethoxy)ethoxy)methyl)-2-diazospiro[indene-1,9′-xanthen]-3(2H)-one], in assay [1] (setting [3]), the “Fold reduction in nonspecific labeling” value is below 1.
As for `COC(=O)C1CN(c2ccc3c(c2)Oc2cc(N4CC(C(=O)OC)C4)ccc2C32C(=[N+]=[N-])C(=O)c3ccc(C(=O)NCCOCCOCCCCCCCl)cc32)C1` [Reference Example 1, dimethyl 1,1′-(6-((2-(2-((6-chlorohexyl)oxy)ethoxy)ethyl)carbamoyl)-2-diazo-3-oxo-2,3-dihydrospiro[indene-1,9′-xanthene]-3′,6′-diyl)bis(azetidine-3-carboxylate)], the “Fold reduction in nonspecific labeling” value in assay [1] (Table 4a) and in assay [1] (setting [3]) was above 10 in each case. Moreover, the “Specificity Factor” value in assay [2] worked out at 2.66.
In the case of `[N-]=[N+]=C1C(=O)c2ccc(C(=O)NCCOCCOCCCCCCCl)cc2C12c1ccc(N3CC(C(=O)O)C3)cc1Oc1cc(N3CC(C(=O)O)C3)ccc12` [Reference Example 2, 1,1′-(6-((2-(2-((6-chlorohexyl)oxy)ethoxy)ethyl)carbamoyl)-2-diazo-3-oxo-2,3-dihydrospiro[indene-1,9′-xanthene]-3′,6′-diyl)bis(azetidine-3-carboxylic acid)], the “Fold reduction in nonspecific labeling” value in assay [1] (Table 4a) and in assay [1] (setting [3]) was above 10 each time. Further, the “Specificity Factor” value in assay [2] is below 1.
Regarding “(E)-3′,6′-di(azetidin-1-yl)-6-(4-(2-((6-chlorohexyl)oxy)ethoxy)but-1-en-1-yl)-2-diazospiro[indene-1,9′-xanthen]-3(2H)-one and (Z)-3′,6′-di(azetidin-1-yl)-6-(4-(2-((6-chlorohexyl)oxy)ethoxy)but-1-en-1-yl)-2-diazospiro[indene-1,9′-xanthen]-3(2H)-one [Example 23]”, the “Fold reduction in nonspecific labeling” value in assay [1] (setting [3]) is above 10.
